The series can be described thus: Observations of appearance, structure and phase separation (Centrifuge Test, standing). It counts as physicochemical. The note with it: gel structure, phase separation.

In the case of “non-ethoxylated sodium tridecyl sulfate [ST0S]”, the observations result was “did not form lamellar phase”.
